Results on five compounds are retold here after PubChem BioAssay AID1259411 (Chemical Carcinogenesis Research Information System (CCRIS), 2018).

In this series the test system is rodent carcinogenicity bioassays, tumor incidence. Description: CCRIS carcinogenicity studies. The procedure, abridged: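 NCI-built, expert-reviewed records of carcinogenicity and related test outcomes (mutagenicity, tumor promotion/inhibition) compiled from published and report sources, historical span 1985-2011, not updated.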

Activity calls are given as the source filed them. No rule for the calls is given here.

Regarding `CC1(C)S[C@@H]2[C@H](NC(=O)[C@H](N)c3ccccc3)C(=O)N2[C@H]1C(=O)O`, the carcinogen call reads like this: (Species: MOUSE, Strain/Sex: B6C3F1/FEMALE, Route: GAVAGE, Dose: 0, 1500, 3000 MG/KG IN CORN OIL 5 D/WK FOR 103-104 WK (STUDY DURATION: 106 WK), Dose: 0, 1500, 3000 MG/KG IN CORN OIL 5 D/WK FOR 103-104 WK (STUDY DURATION: 106 WK)) “inactive; negative”; (Species: MOUSE, Strain/Sex: B6C3F1/FEMALE, Route: GAVAGE, Dose: 0, 1500, 3000 MG/KG IN CORN OIL 5 D/WK FOR 103 WK, Dose: 0, 1500, 3000 MG/KG IN CORN OIL 5 D/WK FOR 103 WK) “inactive; negative”; (Species: MOUSE, Strain/Sex: B6C3F1/MALE, Route: GAVAGE, Dose: 0, 1500, 3000 MG/KG IN CORN OIL 5 D/WK FOR 103-104 WK (STUDY DURATION: 106 WK), Dose: 0, 1500, 3000 MG/KG IN CORN OIL 5 D/WK FOR 103-104 WK (STUDY DURATION: 106 WK)) “inactive; negative”; (Species: MOUSE, Strain/Sex: B6C3F1/MALE, Route: GAVAGE, Dose: 0, 1500, 3000 MG/KG IN CORN OIL 5 D/WK FOR 103 WK, Dose: 0, 1500, 3000 MG/KG IN CORN OIL 5 D/WK FOR 103 WK) “inactive; negative”; (Species: RAT, Strain/Sex: F344/FEMALE, Route: GAVAGE, Dose: 0, 750, 1500 MG/KG IN CORN OIL 5 D/WK FOR 103-104 WK (STUDY DURATION: 106 WK), Dose: 0, 750, 1500 MG/KG IN CORN OIL 5 D/WK FOR 103-104 WK (STUDY DURATION: 106 WK)) “inactive; negative”; (Species: RAT, Strain/Sex: F344/FEMALE, Route: GAVAGE, Dose: 0, 750, 1500 MG/KG IN CORN OIL 5 D/WK FOR 103 WK, Dose: 0, 750, 1500 MG/KG IN CORN OIL 5 D/WK FOR 103 WK) “inactive; negative”. The carcinogen call (Species: RAT, Strain/Sex: F344/MALE, Route: GAVAGE, Dose: 0, 750, 1500 MG/KG IN CORN OIL 5 D/WK FOR 103 WK (STUDY DURATION: 105 WK), Dose: 0, 750, 1500 MG/KG IN CORN OIL 5 D/WK FOR 103 WK (STUDY DURATION: 105 WK), Tumor Site: Type of Lesion: ADRENAL MEDULLA: PHEOCHROMOCYTOMAS, HEMATOPOIETIC SYSTEM: MONONUCLEAR CELL LEUKEMIA) is “equivocal”.
Consider `C[N+]1(C)CCCCC1`, for which the carcinogen call is “inactive; negative” (Species: Rat, Strain/Sex: Wistar/Female (50/Group), Route: Oral, Dose: 0, 17, 141, 370 mg/kg/day of 57.9% mepiquat chloride in diet for 24 mo, study duration 24 mo, Dose: 0, 17, 141, 370 mg/kg/day of 57.9% mepiquat chloride in diet for 24 mo, study duration 24 mo) and “inactive; negative” (Species: Rat, Strain/Sex: Wistar/Male (50/Group), Route: Oral, Dose: 0, 13, 105, 269 mg/kg/day of 57.9% mepiquat chloride in diet for 24 mo, study duration 24 mo, Dose: 0, 13, 105, 269 mg/kg/day of 57.9% mepiquat chloride in diet for 24 mo, study duration 24 mo).
`[Si]`: under “Species: RAT, Strain/Sex: F344/FEMALE, Route: SUBCUTANEOUS IMPLANT, Dose: 10 X 20 X 0.3 MM SHEETS IMPLANTED INTO 2 SITES IN LATERAL ABDOMINAL REGION AND 1 SITE ON THE BACK (STUDY DURATION: 741 D, Tumor Site: Type of Lesion: IMPLANT SITE: MALIGNANT HISTIOCYTOMA”, the carcinogen call was “active; positive”.
As to `CCOC(=O)N(CC)N=O`, the carcinogen call is “active; positive” (Species: HAMSTER, Strain/Sex: SYRIAN/FEMALE, Route: GAVAGE, Dose: 0, 14 MG/ML ((0.2 ML OF A SOLUTION IN ETHYL ACETATE/CORN OIL (1:2)) 1/WK FOR 28 WK (STUDY DURATION: LIFE SPAN), Tumor Site: Type of Lesion: PANCREAS: CARCINOMA OR ADENOMA, FORESTOMACH: SQUAMOUS CELL CARCINOMA OR PAPILLOMA); “active; positive” (Species: RAT, Strain/Sex: DONRYU/FEMALE, Route: ORAL, Dose: 0, 25, 50, 100 PPM IN DRINKING WATER FOR 60 WK, Dose: 0, 25, 50, 100 PPM IN DRINKING WATER FOR 60 WK, Tumor Site: Type of Lesion: ORAL CAVITY: PAPILLOMA, CARCINOMA, ESOPHAGUS: PAPILLOMA, CARCINOMA, FORESTOMACH: PAPILLOMA, CARCINOMA, DUODENUM: ADENOMA, Tumor Site: Type of Lesion: ORAL CAVITY: PAPILLOMA, CARCINOMA, ESOPHAGUS: PAPILLOMA, CARCINOMA, FORESTOMACH: PAPILLOMA, CARCINOMA, DUODENUM: ADENOMA); “active; positive” (Species: RAT, Strain/Sex: F344/FEMALE, Route: GAVAGE, Dose: 0, 0.36, 1.6 MG/ANIMAL IN CORN OIL 1/WK FOR 20 WK (STUDY DURATION: 114 WK), Dose: 0, 0.36, 1.6 MG/ANIMAL IN CORN OIL 1/WK FOR 20 WK (STUDY DURATION: 114 WK), Tumor Site: Type of Lesion: FORESTOMACH: CARCINOMA, PAPILLOMA OR CARCINOMA); “active; positive” (Species: RAT, Strain/Sex: F344/FEMALE, Route: INTRAVESICULAR, Dose: 0, 0.8 MG 2/WK FOR 14 WK (STUDY DURATION: LIFETIME), Tumor Site: Type of Lesion: BLADDER: TUMOR); “active; positive” (Species: RAT, Strain/Sex: F344/FEMALE, Route: ORAL, Dose: 0, 0.15, 0.6, 2.5, 10 PPM IN DISTILLED WATER FOR 2 YRS (STUDY DURATION: 112 WK), Dose: 0, 0.15, 0.6, 2.5, 10 PPM IN DISTILLED WATER FOR 2 YRS (STUDY DURATION: 112 WK), Tumor Site: Type of Lesion: ORAL CAVITY: PAPILLOMA, CARCINOMA, ESOPHAGUS: PAPILLOMA, CARCINOMA, FORESTOMACH: PAPILLOMA, CARCINOMA, Tumor Site: Type of Lesion: ORAL CAVITY: PAPILLOMA, CARCINOMA, ESOPHAGUS: PAPILLOMA, CARCINOMA, FORESTOMACH: PAPILLOMA, CARCINOMA).
For `CCC1=C(C)CN(C(=O)NCCc2ccc(S(=O)(=O)NC(=O)NC3CCC(C)CC3)cc2)C1=O` (centres undefined), the carcinogen call is “inactive; negative” (Species: DOG, Strain/Sex: BEAGLE/FEMALE, Route: ORAL, Dose: 0, 0.8, 16, 320 MG/KG BW IN GELATIN CAPSULE 1/D 7 D/WK FOR 12 MO (STUDY DURATION: 15 MO), Dose: 0, 0.8, 16, 320 MG/KG BW IN GELATIN CAPSULE 1/D 7 D/WK FOR 12 MO (STUDY DURATION: 15 MO)); “inactive; negative” (Species: DOG, Strain/Sex: BEAGLE/MALE, Route: ORAL, Dose: 0, 0.8, 16, 320 MG/KG BW IN GELATIN CAPSULE 1/D 7 D/WK FOR 12 MO (STUDY DURATION: 13 MO), Dose: 0, 0.8, 16, 320 MG/KG BW IN GELATIN CAPSULE 1/D 7 D/WK FOR 12 MO (STUDY DURATION: 13 MO)); “inactive; negative” (Species: RAT, Strain/Sex: WISTAR/FEMALE, Route: ORAL, Dose: 0, 20, 1000, 50000 PPM IN DIET FOR 12 MO (STUDY DURATION: 13 MO), Dose: 0, 20, 1000, 50000 PPM IN DIET FOR 12 MO (STUDY DURATION: 13 MO)); “inactive; negative” (Species: RAT, Strain/Sex: WISTAR/MALE, Route: ORAL, Dose: 0, 20, 1000, 50000 PPM IN DIET FOR 12 MO (STUDY DURATION: 13 MO), Dose: 0, 20, 1000, 50000 PPM IN DIET FOR 12 MO (STUDY DURATION: 13 MO)).
